Test results from patent US20260000079A1, “COMPOSITIONS AND METHODS FOR MODULATING IMMUNITY IN PLANTS” (BOYCE THOMPSON INSTITUTE FOR PLANT RESEARCH, INC., priority 2019, published 2026).

Tests used:
M. incognita J2 larvae = test: Quantitative chemotaxis population assay (worm attraction assay); type: in vivo, Meloidogyne incognita; conditions: 6-cm Petri dish, larvae counted after 4 hours
Method: FIG. 6A provides a graph of the number of nematodes touching the root tips of Arabidopsis wildtype and acx1acx5 treated with 50 nM ascr #18 or ascr #9 for 48 hours before transfer into 12-well plates containing Pluronic® F-127 gel with ˜200 freshly hatched M. incognita J2 larvae. Larvae touching the terminal part of roots were counted at 6 hours after seedling transfer. Data are average±s.d. (n=12). FIG. 6B provides a schematic of a Petri dish as shown in the plate layout. For FIG. 6C, the indicated concentrations of ascr #18, ascr #9, or ascr #18/ascr #9 mixtures were placed on one side with mock solutions on the other side of the 6-cm Petri dish. Subsequently, approximately 100 freshly hatched M. incognita J2 larvae were placed in the center of the plate. Larvae in the indicated scoring areas were counted after 4 hours. Data are averages±s.d. (n=12), **P≤0.003; two-tailed t-test. FIG. 6D provides the attraction index for different concentrations of ascr #18, ascr #9, or ascr #18/ascr #9 mixtures measured using the layout shown in FIG. 6C. Data are averages±SEM (n=12), **P≤0.002; two-tailed t-test.
Ascarosides were dissolved in ethanol to prepare millimolar stock solutions. […]
Chemotaxis plates were prepared by pouring 8 mL of 2% bacto-agar (BD Biosciences) into 6-cm Petri dishes. […] Worms that remained in the center 0.5-cm-wide strip were not counted. […]

[1] = tested on: Arabidopsis wildtype and ibr10, ech2, ech2ibr10, or acx1acx5 mutants; type: in vivo, Arabidopsis thaliana; conditions: for ascaroside levels in ascr #18-treated acx1acx5 mutant compared with wildtype: roots treated with 1 μM ascr #18
Method: FIG. 3A provides a comparison of peroxisomal β-oxidation (pβo) pathways and associated enzymes involved in the conversion of indole-3-butyric acid (IBA)-to-indole acetic acid (IAA) in Arabidopsis and ascaroside biosynthesis in C. elegans. FIG. 3B provides LC-MS analysis of Arabidopsis seedlings treated with 1 μM ascr #18 for 24 hours before sample extraction, comparing ascr #9 production in wildtype and ibr10, ech2, ech2ibr10, or acx1acx5 mutants. FIG. 3C provides a comparison of ascaroside abundances in Arabidopsis wildtype and acx1acx5 roots treated with 1 μM ascr #18. Data are averages±SEM (n=5); n.d.=not detected. FIG. 3D provides RNAseq analysis of ten day-old Arabidopsis wildtype and acx1acx5 mutant roots, plotted as transcript abundance. Data are averages±s.d (n=6).
Arabidopsis thaliana mutant genotypes in the Col-0 background, ibr10-1, ech2-1, ibr10-1ech2-1, and acx1-2acx5-1, were obtained from Rice University (Houston, TX) (Strader, et al. (2011) Plant Cell 23:984-999; Adham, et al. (2005) Plant J. 41:859-874).
To test whether ascr #18 is metabolized via pβo in plants, Arabidopsis mutants impaired in key enzymes of this pathway were analyzed (FIG. 3B). […] In contrast, two other putative po genes, ibr10 and ech2, a putative enoyl-CoA hydratases (Strader, et al. (2011) Plant Cell 23:984-999; Adham, et al. (2005) Plant J. 41:859-874; Zolman, et al. (2008) Genetics 180(1): 237-51), are not required for ascr #18 metabolism in Arabidopsis. ACXs participate in the […] step of pβo by introducing α,β-unsaturation in the side-chain (Von Reuss, et al. (2012) J. Am. Chem. Soc. 134:1817-1824; Strader, et al. (2011) Plant Cell 23:984-999). […] These observations indicate that ascr #18 metabolism in plants into shorter-chained ascarosides proceeds via pβo, and that ACX1 and/or ACX5 are strictly required for chain shortening of ascr #10, whereas the first chain-shortening step from ascr #18 to ascr #10 may involve additional acyl-CoA oxidases.

[2] = tested on: Arabidopsis root exudates; test: LC-MS of root exudates of ascr #18-treated Arabidopsis seedlings; type: in vivo, Arabidopsis thaliana
Method: Data are average±SEM (n=6), n.d.=not detected. […] Exudates from approximately 40 seedlings were collected in distilled water and pooled. Abundances of ascarosides are shown as the peak area, as measured by LC-MS. Data are average±SEM (n=3); n.d.=not detected. FIGS. 5C and 5D show the relative abundances of ascarosides in root exudates of eight-day old tomato seedlings treated with 10 nM (FIG. 5C) or 1000 nM (FIG. 5D) ascr #18 for 6 hours. Exudates from approximately 10 seedlings were collected in distilled water and pooled. Abundances of ascarosides are shown as the peak area, as measured by LC-MS. Data are average±SEM (n=3); n.d.=not detected. FIG. 5E provides the relative abundances of ascr #10, ascr #1, and ascr #9 in the growth media of eight-day old tomato seedlings supplemented with 1 μM ascr #18. Ten-gram media samples were collected at different time points over a 48 hour period for metabolome extraction. Abundances of ascarosides are shown as the peak area, as measured by LC-MS.
To test this possibility, root-secreted metabolites of ascr #18- and mock-treated Arabidopsis were compared (FIG. 5A). For this experiment, 10-day old Arabidopsis seedlings were treated in growth media supplemented with ascr #18 for 6 hours prior to collection of exudates from roots submerged in water. […] Analogous results were obtained in experiments with tomato roots (FIG. 5C, 5D).

SMILES	chemotaxis behavior of M. incognita J2 larvae (attraction index) (M. incognita J2 larvae)	ascaroside levels in ascr #18-treated acx1acx5 mutant compared with wildtype [1]	relative abundance among root-excreted ascr #18 metabolites ([2]; Arabidopsis)	secretion of ascr #18 metabolites via roots ([2]; ascr #18-treated wildtype, 6 hours treatment)	metabolism of ascr #18 into shorter-chained ascarosides ([1]; acx1acx5 mutant, 1 μM ascr #18, 24 hours)	requirement of ibr10 and ech2 for ascr #18 metabolism ([1]; ibr10, ech2 mutants, 1 μM ascr #18, 24 hours)	ascarosides in root exudates of acx1acx5 ([2]; acx1acx5 seedlings, 10 nM ascr #18 for 6 hours)
C[C@H](CCC(=O)O)O[C@@H]1O[C@@H](C)[C@H](O)C[C@H]1O [ascr #9]	no significant effect	not detected	most abundant	secretion	–	–	–
CC1O[C@@H](O[C@@H](C)CCCCCCCCC(=O)O)C(O)C[C@H]1O (stereo in doubt) [ascr #18, (10R)-(3′R,5′R-dihydroxy-6′S-methyl-(2H)-tetrahydropyran-2-yloxy)-undecanoic acid]	no significant effect	elevated levels	–	–	dramatically reduced	not required	larger amounts of residual ascr #18 than in wildtype
